From the NIST ThermoML archive (doi:10.1016/j.jct.2018.11.014)

Assay: molar heat capacity at constant pressure
Details: 101.33 kPa, Crystal, Vacuum adiabatic calorimetry

O=C(CO)[C@@H](O)[C@@H](O)[C@H](O)CO [D-(-)-tagatose]
Details	molar heat capacity at constant pressure [J/K/mol]
110.79 K	86.05
112.05 K	87.01
113.37 K	88.06
114.74 K	89.11
116.09 K	90.16
117.44 K	91.23
118.77 K	92.2
120 K	93.18
120.13 K	93.3
121.52 K	94.39
122.9 K	95.4
124.27 K	96.48
125.63 K	97.47
127.06 K	98.59
128.55 K	99.75
130 K	100.79
130.03 K	100.83
131.5 K	101.97
132.96 K	103.07
134.45 K	104.19
135.97 K	105.29
137.47 K	106.45
138.97 K	107.56
140 K	108.3
140.45 K	108.68
141.96 K	109.8
143.5 K	110.93
145.03 K	112.09
146.55 K	113.1
148.1 K	114.27
149.72 K	115.49
150 K	115.72
151.43 K	116.75
153.17 K	118.02
154.9 K	119.31
156.62 K	120.56
158.37 K	121.84
160 K	123.1
160.14 K	123.23
161.94 K	124.54
163.76 K	125.92
165.57 K	127.19
167.41 K	128.53
169.28 K	129.9
170 K	130.45
171.14 K	131.27
172.99 K	132.6
174.82 K	134.01
176.68 K	135.37
178.57 K	136.72
180 K	137.8
180.49 K	138.21
182.43 K	139.62
184.37 K	141.02
186.33 K	142.53
188.32 K	143.96
190 K	145.19
190.29 K	145.43
192.26 K	146.89
194.22 K	148.2
196.2 K	149.78
198.21 K	151.32
200 K	152.62
200.21 K	152.77
202.19 K	154.24
204.24 K	155.8
206.37 K	157.27
208.53 K	159.03
210 K	160.09
210.68 K	160.61
212.82 K	162.18
214.94 K	163.84
217.1 K	165.39
219.28 K	167.07
220 K	167.61
221.45 K	168.71
223.6 K	170.37
225.82 K	171.99
228.13 K	173.74
230 K	175.16
230.48 K	175.53
232.81 K	177.33
235.13 K	179.15
237.48 K	180.87
239.92 K	182.64
240 K	182.74
242.39 K	184.45
244.84 K	186.37
247.28 K	188.22
249.7 K	190.03
250 K	190.36
252.15 K	192.06
254.63 K	194.03
257.1 K	195.94
259.55 K	197.81
260 K	198.11
261.98 K	199.73
264.45 K	201.55
266.94 K	203.51
269.42 K	205.41
270 K	206.1
271.88 K	207.63
274.33 K	209.55
276.81 K	211.93
279.31 K	213.91
280 K	214.24
281.79 K	215.77
284.26 K	217.69
286.73 K	219.65
289.21 K	221.51
290 K	222.17
291.73 K	223.31
294.22 K	225.32
296.71 K	227.47
298.15 K	228.55
299.18 K	229.22
300 K	229.99
301.76 K	231.28
304.46 K	233.53
307.14 K	235.53
309.81 K	237.67
310 K	237.81
312.46 K	239.92
315.14 K	241.99
317.84 K	244.2
320 K	245.73
320.53 K	246.19
323.2 K	248.11
325.86 K	250.28
328.54 K	252.68
330 K	253.86
331.25 K	254.96
